Measurements published in ChEMBL document CHEMBL1201862, “PubChem BioAssay data set” (2004).
Activity calls are given as the source filed them.

How the values were obtained:
[1] = target: T1, Heat shock factor protein 1 (Mus musculus, UniProt P38532); assay: decrease of HSF1-responsive luciferase luminescence – cell-based, NIH3T3, dose retest, confirmation (AID 2382); format: functional;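 further: NIH3T3 fibroblasts with HSF1-driven luciferase reporter stressed by proteasome inhibitor MG132; luminescence from HSF1-driven luciferase expression after 8 hours of MG132 stress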
T1 sequence (P38532 whole entry): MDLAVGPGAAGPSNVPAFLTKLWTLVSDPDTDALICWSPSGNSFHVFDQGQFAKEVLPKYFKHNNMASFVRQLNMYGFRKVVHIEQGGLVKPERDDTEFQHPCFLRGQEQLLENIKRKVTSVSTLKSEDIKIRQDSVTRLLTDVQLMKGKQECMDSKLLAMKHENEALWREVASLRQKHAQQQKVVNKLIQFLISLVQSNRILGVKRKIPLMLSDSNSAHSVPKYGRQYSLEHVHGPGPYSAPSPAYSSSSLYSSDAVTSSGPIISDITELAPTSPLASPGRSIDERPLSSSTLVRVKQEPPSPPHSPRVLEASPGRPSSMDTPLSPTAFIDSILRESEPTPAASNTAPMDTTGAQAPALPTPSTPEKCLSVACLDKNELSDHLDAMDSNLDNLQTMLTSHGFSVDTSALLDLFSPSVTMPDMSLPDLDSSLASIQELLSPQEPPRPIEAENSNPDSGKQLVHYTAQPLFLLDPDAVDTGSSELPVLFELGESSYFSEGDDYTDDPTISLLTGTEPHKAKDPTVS

[2] = NIH3T3 cell viability loss – ATP luminescence, mouse fibroblasts, counter-screen, dose response (AID 2010); format: functional, cell-based;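 further: cells exposed to compound for about 90 hours before reading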
Paired box protein Pax-8 = Paired box protein Pax-8 (Homo sapiens, UniProt Q06710); assay: PAX8 transcriptional activity inhibition in RMG-I – RMG-I cells, luciferase, cherry-pick, dose response (AID 687027); format: functional, cell-based;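 further: luciferase reporter driven by Pax8 target thyroperoxidase promoter measured by SteadyGlo luminescence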
[3] = Trypanosoma cruzi growth suppression in host cells – NIH3T3 host cells, beta-gal luminescence, confirmation (AID 2044); format: functional, cell-based;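 further: intracellular parasites grown in NIH/3T3 mouse fibroblasts as host cells; luminescent beta-galactosidase reporter signal from transgenic T. cruzi replicating inside host cells; inhibitors lower the luminescence signal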
[4] = target: T2, Microphthalmia-associated transcription factor (Homo sapiens, UniProt O75030); assay: reducers of TRPM1 reporter luminescence, concentration series – cell-based, SK-MEL-5, cherry-picked, set 3, MITF inhibitor project, dose response (AID 493073); format: functional;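 further: SK-MEL-5 melanoma cells with luciferase driven by the MITF target TRPM1 promoter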
T2 sequence (O75030 whole entry): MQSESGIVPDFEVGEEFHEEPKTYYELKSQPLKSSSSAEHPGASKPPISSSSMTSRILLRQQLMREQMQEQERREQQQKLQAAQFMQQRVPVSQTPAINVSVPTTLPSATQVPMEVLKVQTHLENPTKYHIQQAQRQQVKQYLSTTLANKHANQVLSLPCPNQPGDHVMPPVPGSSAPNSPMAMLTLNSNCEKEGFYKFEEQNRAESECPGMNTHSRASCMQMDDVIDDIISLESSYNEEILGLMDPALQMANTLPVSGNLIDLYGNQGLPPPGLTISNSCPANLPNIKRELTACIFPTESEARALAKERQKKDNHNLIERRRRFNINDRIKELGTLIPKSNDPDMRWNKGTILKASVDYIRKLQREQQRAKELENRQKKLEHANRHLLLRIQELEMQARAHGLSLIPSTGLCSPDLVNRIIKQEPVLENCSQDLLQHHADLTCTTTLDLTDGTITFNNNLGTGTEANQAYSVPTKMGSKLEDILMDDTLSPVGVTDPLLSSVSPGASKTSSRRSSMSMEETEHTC

[5] = target: T1, Heat shock factor protein 1; assay: enhancement of HSF1-driven luciferase signal – cell-based, NIH3T3, luminescence, dose retest, confirmation (AID 435004); format: functional;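 further: stress induced by proteasome inhibitor MG132 added 30 min after compound; luciferase reporter driven by HSF1 response element in NIH3T3 cells; actives raise luminescence as potentiators of the MG132 stress response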
[6] = target: T3, Replicative DNA helicase DnaB (Mycobacterium tuberculosis, UniProt P9WMR3); assay: DnaB intein splicing inhibitors, dose response, biochemical, cell-free fluorescence (AID 449749); format: functional
T3 sequence (P9WMR3 whole entry): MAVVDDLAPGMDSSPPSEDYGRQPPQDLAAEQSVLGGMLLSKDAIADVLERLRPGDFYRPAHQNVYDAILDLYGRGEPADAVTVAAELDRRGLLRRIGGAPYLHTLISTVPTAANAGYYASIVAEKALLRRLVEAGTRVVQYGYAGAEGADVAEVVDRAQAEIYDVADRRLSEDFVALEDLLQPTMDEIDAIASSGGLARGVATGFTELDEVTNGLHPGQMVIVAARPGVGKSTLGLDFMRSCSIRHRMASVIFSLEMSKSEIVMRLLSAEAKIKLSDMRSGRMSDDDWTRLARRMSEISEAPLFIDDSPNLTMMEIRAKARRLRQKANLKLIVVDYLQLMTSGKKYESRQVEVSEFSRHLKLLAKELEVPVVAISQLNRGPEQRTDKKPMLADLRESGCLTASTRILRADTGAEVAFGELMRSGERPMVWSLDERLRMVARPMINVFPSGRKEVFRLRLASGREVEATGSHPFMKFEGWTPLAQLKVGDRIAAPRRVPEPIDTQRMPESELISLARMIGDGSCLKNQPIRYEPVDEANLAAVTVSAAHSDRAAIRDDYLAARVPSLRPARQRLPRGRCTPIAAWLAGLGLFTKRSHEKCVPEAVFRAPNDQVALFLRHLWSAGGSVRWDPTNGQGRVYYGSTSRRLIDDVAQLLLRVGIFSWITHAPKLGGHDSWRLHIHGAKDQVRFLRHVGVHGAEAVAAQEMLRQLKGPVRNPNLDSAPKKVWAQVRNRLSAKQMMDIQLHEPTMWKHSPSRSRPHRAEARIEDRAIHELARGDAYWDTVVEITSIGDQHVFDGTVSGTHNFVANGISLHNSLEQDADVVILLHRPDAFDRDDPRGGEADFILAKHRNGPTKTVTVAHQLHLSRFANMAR

Protein RecA = target: T4, Protein RecA (Mycobacterium tuberculosis, UniProt P9WHJ3); assay: Fluorescence Cell-Free Homogeneous Dose Retest to Identify Inhibitors of RecA-Intein Splicing Activity. [Related pubchem assays (depositor defined):AID2097, AID2223, AID489010, AID492950]; format: functional
T4 sequence (P9WHJ3 whole entry): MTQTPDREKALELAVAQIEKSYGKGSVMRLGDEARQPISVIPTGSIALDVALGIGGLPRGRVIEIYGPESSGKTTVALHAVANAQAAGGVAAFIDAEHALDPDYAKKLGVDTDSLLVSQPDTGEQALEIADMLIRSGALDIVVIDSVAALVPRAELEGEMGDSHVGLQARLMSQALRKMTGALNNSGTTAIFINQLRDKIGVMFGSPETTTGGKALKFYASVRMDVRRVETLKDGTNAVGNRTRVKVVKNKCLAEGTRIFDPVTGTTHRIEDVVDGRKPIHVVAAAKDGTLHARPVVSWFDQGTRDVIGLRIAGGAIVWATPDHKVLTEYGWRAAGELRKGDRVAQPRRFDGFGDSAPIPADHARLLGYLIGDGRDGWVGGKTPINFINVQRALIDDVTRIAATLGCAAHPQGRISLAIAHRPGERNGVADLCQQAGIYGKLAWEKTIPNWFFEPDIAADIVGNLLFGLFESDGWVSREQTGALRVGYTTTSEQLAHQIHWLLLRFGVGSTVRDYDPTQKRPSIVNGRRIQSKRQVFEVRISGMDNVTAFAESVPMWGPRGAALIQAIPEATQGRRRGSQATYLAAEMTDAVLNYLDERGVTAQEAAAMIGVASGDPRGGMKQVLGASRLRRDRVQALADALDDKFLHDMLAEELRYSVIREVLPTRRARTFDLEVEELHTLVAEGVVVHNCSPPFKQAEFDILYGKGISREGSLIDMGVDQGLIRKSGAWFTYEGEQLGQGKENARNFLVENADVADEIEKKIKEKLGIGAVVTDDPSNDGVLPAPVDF

INS1 = assay: INS-1E survival protection against cytokine death – cell-based, luminescence, retest, dose response (AID 449756); format: functional; settings: Rattus norvegicus;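 further: cell death triggered by IL-1 beta plus TNF-alpha plus IFN-gamma mixture; protective hits raise ATP signal compared with cytokine alone wells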
Nonstructural protein 1 = Nonstructural protein 1 (Influenza A virus, UniProt Q194T2); format: functional, Influenza A virus (A/California/07/2009(H1N1))
[7] = target: T5, Rac GTPase-activating protein 1 (Homo sapiens, UniProt Q9H0H5); assay: blockers of MgcRacGAP-driven Rac1 GTP hydrolysis – biochemical, ADP Hunter fluorescence, primary and confirmatory, confirmation (AID 624330); format: functional
T5 sequence (Q9H0H5 whole entry): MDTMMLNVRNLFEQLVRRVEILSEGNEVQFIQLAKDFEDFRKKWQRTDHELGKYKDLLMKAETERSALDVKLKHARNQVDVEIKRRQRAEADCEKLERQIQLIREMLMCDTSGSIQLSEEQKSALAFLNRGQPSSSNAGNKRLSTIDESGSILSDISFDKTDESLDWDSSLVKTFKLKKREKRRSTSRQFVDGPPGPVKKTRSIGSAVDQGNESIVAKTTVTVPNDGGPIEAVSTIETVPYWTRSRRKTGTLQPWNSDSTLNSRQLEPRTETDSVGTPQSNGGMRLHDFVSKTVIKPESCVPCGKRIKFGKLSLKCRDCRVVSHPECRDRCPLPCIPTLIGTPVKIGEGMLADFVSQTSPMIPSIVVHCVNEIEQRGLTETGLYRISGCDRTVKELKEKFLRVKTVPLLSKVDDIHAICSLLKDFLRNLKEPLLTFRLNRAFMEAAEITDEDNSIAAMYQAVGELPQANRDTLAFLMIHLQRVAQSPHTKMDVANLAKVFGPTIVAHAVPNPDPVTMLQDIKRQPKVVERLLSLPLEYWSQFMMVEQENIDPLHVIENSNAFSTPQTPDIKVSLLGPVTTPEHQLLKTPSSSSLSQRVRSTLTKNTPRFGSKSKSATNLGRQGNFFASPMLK

Large T antigen = Large T antigen (Simian virus 40, UniProt P03070); format: functional, Betapolyomavirus macacae;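 further: Confirmatory-stage PubChem screen for compounds that inhibit SV40 T antigen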
[8] = Luminescence Cell-Based Dose Confirmation HTS to Identify Inhibitors of Platelet Dense Granule Release. [Related pubchem assays: 1663 (Primary HTS), 1678 (Summary of Project)]; format: functional
Cytochrome P450 1A2 = target: T6, Cytochrome P450 1A2 (Homo sapiens, UniProt P05177);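 further: PubChem cytochrome P450 panel assay, CYP1A2 panel member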
T6 sequence (P05177 whole entry): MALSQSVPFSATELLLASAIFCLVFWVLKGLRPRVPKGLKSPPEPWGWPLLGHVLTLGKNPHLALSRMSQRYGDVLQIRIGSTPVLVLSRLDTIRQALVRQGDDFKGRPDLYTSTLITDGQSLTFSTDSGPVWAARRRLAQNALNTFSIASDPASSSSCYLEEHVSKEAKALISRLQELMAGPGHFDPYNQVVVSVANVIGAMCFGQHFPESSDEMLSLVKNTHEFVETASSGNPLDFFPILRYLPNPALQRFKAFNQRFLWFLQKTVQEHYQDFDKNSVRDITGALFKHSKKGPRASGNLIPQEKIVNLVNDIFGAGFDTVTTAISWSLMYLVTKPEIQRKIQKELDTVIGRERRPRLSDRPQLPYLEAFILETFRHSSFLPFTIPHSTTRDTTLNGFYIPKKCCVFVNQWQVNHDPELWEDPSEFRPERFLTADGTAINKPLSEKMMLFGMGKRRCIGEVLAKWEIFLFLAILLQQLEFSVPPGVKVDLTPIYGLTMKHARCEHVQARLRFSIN

[9] = target: Luciferin 4-monooxygenase (Photinus pyralis, UniProt P08659); assay: inhibition of purified Photinus pyralis luciferase – biochemical, luminescence, dose response (AID 1891)
Chain of Luciferin 4-monooxygenase (P08659 whole entry): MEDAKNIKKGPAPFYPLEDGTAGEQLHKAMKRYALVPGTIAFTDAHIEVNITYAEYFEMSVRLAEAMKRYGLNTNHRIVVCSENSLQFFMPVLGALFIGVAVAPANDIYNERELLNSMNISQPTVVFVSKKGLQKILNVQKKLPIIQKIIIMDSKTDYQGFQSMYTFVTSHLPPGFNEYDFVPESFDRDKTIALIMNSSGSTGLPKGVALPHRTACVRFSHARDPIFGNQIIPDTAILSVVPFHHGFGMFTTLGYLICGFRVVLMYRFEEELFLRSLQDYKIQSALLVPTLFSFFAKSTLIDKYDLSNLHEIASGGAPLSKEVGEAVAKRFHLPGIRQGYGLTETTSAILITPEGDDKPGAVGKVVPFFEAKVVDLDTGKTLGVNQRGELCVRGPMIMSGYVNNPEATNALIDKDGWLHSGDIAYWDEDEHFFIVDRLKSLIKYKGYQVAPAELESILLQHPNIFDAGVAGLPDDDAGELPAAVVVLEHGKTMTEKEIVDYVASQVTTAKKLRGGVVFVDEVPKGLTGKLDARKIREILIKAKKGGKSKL

Chain of Paired box protein Pax-8 (Q06710 whole entry): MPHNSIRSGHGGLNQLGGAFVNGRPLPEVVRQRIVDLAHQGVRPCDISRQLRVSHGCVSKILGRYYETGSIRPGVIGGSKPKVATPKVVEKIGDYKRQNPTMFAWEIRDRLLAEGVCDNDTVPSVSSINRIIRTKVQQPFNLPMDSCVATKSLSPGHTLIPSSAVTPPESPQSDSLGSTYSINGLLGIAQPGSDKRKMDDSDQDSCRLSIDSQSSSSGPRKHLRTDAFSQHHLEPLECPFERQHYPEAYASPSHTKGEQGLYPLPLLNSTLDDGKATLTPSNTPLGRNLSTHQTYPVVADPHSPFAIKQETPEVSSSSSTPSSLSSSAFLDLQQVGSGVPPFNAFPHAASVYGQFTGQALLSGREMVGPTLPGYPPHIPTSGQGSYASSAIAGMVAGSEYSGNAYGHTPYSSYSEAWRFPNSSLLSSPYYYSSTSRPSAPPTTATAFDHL
Chain of Large T antigen (P03070 whole entry): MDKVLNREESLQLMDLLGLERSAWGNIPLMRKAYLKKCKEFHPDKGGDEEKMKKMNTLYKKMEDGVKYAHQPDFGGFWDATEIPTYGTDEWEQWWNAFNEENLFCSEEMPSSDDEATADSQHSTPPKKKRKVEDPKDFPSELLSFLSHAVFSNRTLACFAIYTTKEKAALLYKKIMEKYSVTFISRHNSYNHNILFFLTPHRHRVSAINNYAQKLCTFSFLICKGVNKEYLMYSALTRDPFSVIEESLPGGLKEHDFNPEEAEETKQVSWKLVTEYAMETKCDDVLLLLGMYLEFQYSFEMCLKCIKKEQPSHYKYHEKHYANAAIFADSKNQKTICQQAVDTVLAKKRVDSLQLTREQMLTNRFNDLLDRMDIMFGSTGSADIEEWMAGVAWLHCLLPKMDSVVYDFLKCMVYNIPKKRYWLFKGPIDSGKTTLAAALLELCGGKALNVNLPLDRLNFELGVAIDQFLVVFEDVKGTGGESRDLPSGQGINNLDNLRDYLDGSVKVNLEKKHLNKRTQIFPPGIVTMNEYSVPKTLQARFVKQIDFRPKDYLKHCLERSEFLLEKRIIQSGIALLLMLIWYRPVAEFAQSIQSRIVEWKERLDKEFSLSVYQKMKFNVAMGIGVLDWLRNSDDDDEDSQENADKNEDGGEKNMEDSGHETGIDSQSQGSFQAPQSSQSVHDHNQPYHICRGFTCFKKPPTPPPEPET
Chain of Nonstructural protein 1 (Q194T2 whole entry): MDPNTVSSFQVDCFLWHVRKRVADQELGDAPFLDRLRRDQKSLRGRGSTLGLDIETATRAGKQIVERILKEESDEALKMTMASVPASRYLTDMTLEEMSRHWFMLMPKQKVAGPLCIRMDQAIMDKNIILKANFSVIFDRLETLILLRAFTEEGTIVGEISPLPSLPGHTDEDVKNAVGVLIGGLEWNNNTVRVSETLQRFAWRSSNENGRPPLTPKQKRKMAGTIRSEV

CCC(=O)N1CCN(c2ccc(NC(=O)c3ccc([N+](=O)[O-])o3)cc2)CC1
EC50 [1]: > 195 µM (not active) | EC50 [2]: 7.54 µM (active) | AC50 (Paired box protein Pax-8): 5.31 µM (active) | EC50 [3]: 5.98 µM (active) | AC50 [4]: 8.68 µM (active)

O=c1c2ccccc2nc(SCc2nnc(-c3ccccc3Br)o2)n1Cc1ccco1
EC50 [5]: > 260 µM (inactive)

CCCc1n[nH]c(O)c1C(c1ccc(Cl)cc1)C(C#N)C#N (centres undefined)
AC50 [6]: 8.44 µM (active) | EC50 (Protein RecA): 4.14 µM (active)

C/C(CC(=O)Nc1cc(C)ccn1)=N\NC(=O)c1ccncc1
AC50 [6]: 7.32 µM (active) | EC50 (Protein RecA): 4.03 µM (active)

O=C(N/N=C/C=C(\O)c1ccc([N+](=O)[O-])cc1)c1ccccc1
AC50 (INS1): 1.76 µM (active) | EC50 [2]: 17.6 µM (active) | EC50 [3]: 2.02 µM (active) | AC50 [4]: 9.19 µM (active)

CSc1sc(C(=O)Nc2ccc(F)cc2F)c2c1C=CCC2
EC50 [5]: > 260 µM (inactive)

Cc1ccc(O)c(NC(=O)CSc2n[nH]c(-c3ccccc3)n2)c1
EC50 [5]: 10 µM (active)

O=C1C=CC(=C(c2ccc(O)cc2)c2ccc(O)cc2)C=C1 [AURIN]
IC50 (Nonstructural protein 1): 59.1 µM (active) | AC50 (Paired box protein Pax-8): 8.81 µM (active) | AC50 [4]: 9.92 µM (active)

CN(C)c1ccc(NC2=C([N+](=O)[O-])CS(=O)(=O)C2)cc1
IC50 [7]: 42.7 µM (active) | IC50 (Large T antigen): 5.71 µM (active)

COc1cc(C(=O)NCC(=O)N/N=C/c2cccc(OC(=O)c3ccco3)c2)cc(OC)c1OC
AC50 [6]: 36 µM (active) | EC50 (Protein RecA): 16.6 µM (active)

Cc1ccc(-n2cc(CNCCN3CCOC3=O)c(-c3cccc(C)c3)n2)cc1
EC50 [5]: > 260 µM (inactive)

C=C1CCC[C@]2(C)C[C@H]3OC(=O)C(CN4CCCCC4CO)[C@H]3CC12 (some centres undefined)
AC50 [4]: 11 µM (active)

COc1ccc(CCNC(=O)Nc2cccc([N+](=O)[O-])c2)cc1OC
EC50 [5]: > 260 µM (inactive)

CC1CN(C(=S)NC(=O)C2CCCCC2)CC(C)O1 (centres undefined)
EC50 [5]: > 260 µM (inactive)

O=C(c1ccc(N2CCN(CCO)CC2)nc1)N1CCOCC1
AC50 [6]: > 380 µM (inactive) | EC50 (Protein RecA): > 380 µM (inactive)

COc1cc(/C=N/NC(N)=O)c(Br)cc1OCC(=O)Nc1ccccc1C
EC50 [8]: > 112 µM (not active) | AC50 (Cytochrome P450 1A2): 14.1 µM (inconclusive) | EC50 [9]: > 112 µM (not active) | AC50 [4]: 17.8 µM (active)

Cc1cccc2sc(N(CCCN(C)C)C(=O)c3nc4ccccc4s3)nc12
AC50 [4]: 10.9 µM (active)

CC(C)OC(=O)c1c(NC(=O)Cn2cnc([N+](=O)[O-])n2)sc2c1CCCC2
EC50 [5]: > 260 µM (inactive) | EC50 [2]: > 60 µM (not active) | EC50 [3]: 0.203 µM (active)

CC1=NN(c2ccccc2)C(=O)C1=C(C)C
AC50 [6]: 5.6 µM (active) | EC50 (Protein RecA): 2.46 µM (active)
